Laboratory results reported in EP4778929A1, “NOVEL TYPE I TOPOISOMERASE INHIBITOR, AND PREPARATION METHOD THEREFOR AND USE THEREOF” (priority 2023, dated 2025).

What was measured:
[1] = tested on: Human colon cancer HCT116 cells; experiment: Subcutaneous xenograft model of human colon cancer HCT-116 cells; type: in vivo, BALB/c nude mice; conditions: day 21 post-treatment, 5 mg/kg, IV, BIW×3W
Protocol: Test Example 4. Pharmacodynamic Evaluation of Compound 2, Compound 250, and Compound 253 in a Subcutaneous Xenograft Model of Human Colon Cancer HCT-116 Cells in BALB/c Female Nude Mice
Human colon cancer HCT116 cells were cultured in vitro as monolayers in McCoys 5a medium supplemented with 10% fetal bovine serum and 1% penicillin/streptomycin/amphotericin B at 37 °C in a 5% CO2 incubator. Cells were routinely passaged twice a week using trypsin-EDTA digestion. When cells reached 80%-90% confluence and the required cell number was achieved, cells were harvested. HCT116 cells (0.1 mL, 5×10^6 cells) were subcutaneously inoculated into the right dorsal region near the upper forelimb of each mouse (BALB/c nude mice, female, 6-8 weeks old). Treatment was initiated when the average tumor volume reached approximately 158 mm^3. Tumor volume was measured twice weekly. At the end of the experiment, the tumor growth inhibition rate (TGI) was calculated as: TGI (%) = [1 - (average tumor volume at the end of treatment in a particular group - average tumor volume at the start of treatment in that group) / (average tumor volume at the end of treatment in the vehicle control group - average tumor volume at the start of treatment in the vehicle control group)] × 100%.
(§1) Experimental Groups and Dosing Regimen:
• 1, Vehicle control group • 2, Compound 2, 5 mg/kg, IV, BIW×3W • 3, Compound 250, 5 mg/kg, IV, BIW×3W • 4, Compound 253, 5 mg/kg, IV, BIW×3W

HCT116 cells = experiment: Inhibition of cell proliferation by CTG (CellTiter-Glo) luminescence assay; type: cell-based; conditions: Homo sapiens, HCT-116, 72 h, read-out: HCT116, IC50
How it was run: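 Nine-point 1:3 dilutions applied to HCT116 cells (2 000/well, McCoy's 5a + 10 % FBS) for 72 h at 37 °C, final DMSO 0.25 %. Viability read by CellTiter-Glo luminescence; % inhibition versus DMSO controls fitted to four-parameter logistic for IC50.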

[2] = tested on: Human colon cancer CR00090 cells; experiment: CR00090 human colon cancer model (subcutaneous); type: in vivo, NPSG mice; conditions: day 28 post-treatment, 5 mg/kg, IV, BIW×4W
Protocol: Test Example 5: Pharmacodynamic Evaluation of Compound 117, Compound 250, and Compound 253 in the CR00090 Human Colon Cancer Model
Human colon cancer CR00090 cells were thawed, counted, and mixed with Matrigel at a 1:1 ratio. Then, 0.1 mL (5×10^5 cells) of CR00090 cells were subcutaneously inoculated into the right dorsal region near the upper forelimb of each mouse (NPSG mice, female, 6-8 weeks old). Treatment was initiated when the average tumor volume reached approximately 84 mm^3. Tumor volume was measured twice weekly. At the end of the experiment, the tumor growth inhibition rate (TGI) was calculated as: TGI (%) = [1 - (average tumor volume at the end of treatment in a particular group - average tumor volume at the start of treatment in that group) / (average tumor volume at the end of treatment in the vehicle control group - average tumor volume at the start of treatment in the vehicle control group)] × 100%.
as §1
• 1, Vehicle control group • 2, Compound 117, 5 mg/kg, IV, BIW×4W • 3, Compound 250, 5 mg/kg, IV, BIW×4W • 4, Compound 253, 5 mg/kg, IV, BIW×4W

| SMILES | TGI [1] [%] | tumor volume ([1]; vehicle control 1146 mm^3) [mm^3] | IC50 (HCT116 cells) [nM] | TGI [2] [%] | tumor volume ([2]; vehicle control 1093 mm^3) [mm^3] |
| --- | --- | --- | --- | --- | --- |
| CC[C@@]1(O)C(=O)OCc2c1cc1n(c2=O)Cc2c-1c(=O)c1cc(F)cc(C)c1n2C [Example 2, (S)-4-ethyl-8-fluoro-4-hydroxy-10,11-dimethyl-1,12-dihydro-14H-pyrano[3,4:6,7]indolizino[2,1-b]quinoline-3,6,14(4H,11H)-trione] | 81.9 | 335 | < 20 | – | – |
| CC[C@@]1(O)C(=O)OCc2c1cc1n(c2=O)Cc2c-1c(=O)c1cc(F)ccc1n2CCN(C)C1CCCC1 [Example 117] | – | – | < 20 | 82.4 | 262 |
